The record followed here is BindingDB's records for doi:10.1016/j.bmcl.2013.03.030 (Panthera Biopharma, 2013).

For orientation: Ki means a dissociation constant, usually derived from enzyme kinetics or from competition with a known ligand. A lower Ki goes with tighter binding.

In the assay the target is Botulinum neurotoxin type A (Clostridium botulinum, UniProt P0DPI0). In words: Inhibition of Clostridium botulinum BoNT/A light chain (1 to 429 amino acid) using Abz-Thr-dArg-Ile-Asp-Glu-Ala-Asn-Gln-Arg-Ala-Thr-Lys-Nle-Lys(Dnp)-NH2 as substrate after 10 mins by FRET assay.
Sequence of Botulinum neurotoxin type A (P0DPI0 2-448 limits assumed): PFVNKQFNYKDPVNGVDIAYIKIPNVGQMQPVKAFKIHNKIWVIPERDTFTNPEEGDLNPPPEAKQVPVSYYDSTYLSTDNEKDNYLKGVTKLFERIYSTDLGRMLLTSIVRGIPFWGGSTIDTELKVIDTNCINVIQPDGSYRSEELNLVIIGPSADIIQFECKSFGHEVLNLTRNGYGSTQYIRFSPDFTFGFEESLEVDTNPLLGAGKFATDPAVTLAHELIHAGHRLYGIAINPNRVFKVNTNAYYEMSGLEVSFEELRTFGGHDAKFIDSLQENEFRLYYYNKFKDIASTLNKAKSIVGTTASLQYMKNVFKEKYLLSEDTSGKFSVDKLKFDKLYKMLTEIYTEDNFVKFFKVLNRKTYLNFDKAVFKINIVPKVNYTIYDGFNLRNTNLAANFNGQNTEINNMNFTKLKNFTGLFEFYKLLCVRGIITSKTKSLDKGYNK

As for `O=C(Cc1sc(N2CCCC2)nc1O)NO`, the Ki is over 300 µM.
